This data set can be described thus: gradient 5% acetonitrile 3 min, to 50% in 2 min, to 85% in 15 min, held 3 min, 100 µL/min. The settings on record: column: Zorbax Extend-C18 2.1 x 50 mm; eluents: water / acetonitrile, 0.1% formic acid. The method, boiled down: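 Values are retention times taken from adduct peaks that software picked and an analyst inspected. The pure standards were run as mixtures of ~100 molecules on HPLC linked to a quadrupole time-of-flight mass spectrometer, in positive and negative ionization mode. A Zorbax Extend-C18 column (2.1 × 50 mm, 1.8 μm) was used at 100 μL/min with water and acetonitrile, each including 0.1% formic acid.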
`COC(=O)c1cc(S(=O)(=O)N2CCCC2C(=O)Nc2nc3ccc(OC)cc3s2)cn1C` (stereo not given) came in with an RP-LC retention time of 893 s. The value for `CCN1CCN(c2ccc(-c3nc(-c4ccc(C)cc4)no3)cn2)CC1` was 715 s.

The compound `COc1ccc(-c2cc(C(=O)Nc3ccc(Cl)cc3)nn2C2CCS(=O)(=O)C2)cc1` (stereo not given) gave an RP-LC retention time of 1020 s.

In the case of `Cc1nc2cc(-c3noc(-c4ccc(F)c(F)c4)n3)ccc2o1`, the RP-LC retention time is 1100 s. The compound `O=C(Nc1nc(-c2ccccc2)ns1)c1ccccc1Cl` gave an RP-LC retention time of 989 s. The value for `Cc1cc(OC(C)C(=O)N2CCC3(O)CCCCC3C2)c2c3c(c(=O)oc2c1)CCCC3` (stereo not given) was 892 s; that for `CC(C)CN1C(=O)c2cccn2CC1C(=O)NCc1ccc2c(c1)OCO2` (stereo not given) was 676 s. The value for `CCOc1ccc(OCC)c(NC(=O)c2cn3c4c(ccc(Cl)c4c2=O)OCC3)c1` was 1100 s; that for `COc1ccc(CC(=O)Nc2cc(-c3cn4cccnc4n3)ccc2OC)cc1` was 675 s; that for `Cc1nn(CC(=O)NCc2cccs2)c(=O)c2nc(-c3ccccc3)sc12` was 813 s. In turn, `Cc1cccc(-n2c(=O)c3sccc3n(Cc3nc(-c4ccccc4Cl)no3)c2=O)c1` had an RP-LC retention time of 1010 s.

In the case of `COc1ccc2nc(C(=O)NCc3ccccc3F)cn2n1`, the RP-LC retention time was determined as 806 s.

Turning to `COc1ccc(-c2c(C)noc2NC(C)=O)cc1S(=O)(=O)Nc1ccc(F)c(Cl)c1`, the RP-LC retention time came to 803 s. Compound `Cc1nn2c(CNS(=O)(=O)c3c(C)nn(C)c3C)c(C)nc2s1` showed an RP-LC retention time of 596 s. `COc1ccc(-c2nc(C3CC(=O)N(c4ccc(F)c(Cl)c4)C3)no2)cc1OC` (stereo not given) showed an RP-LC retention time of 963 s. The value for `COc1ccccc1N1CCN(C(=O)CN2C(=O)CC(c3cccs3)=Nc3ccccc32)CC1` was 898 s; that for `COc1ccc(-n2ccc(=O)c(-c3nc(-c4ccc5c(c4)OCO5)no3)n2)cc1` was 855 s; that for `CCCC1NN(C)C2C(=O)NC(c3cc(S(=O)(=O)N4CCN(C)CC4)ccc3OCC)NC12` (stereo not given) was 722 s. In the case of `Cc1cc(N2CCN(C(=O)CCc3c[nH]c4ccccc34)CC2)nc2ccccc12` it was 584 s; in that of `CCn1nccc1C(=O)N1CCN(c2cc(-c3ccccc3)[nH]n2)CC1`, 694 s; in that of `CN(Cc1ccccc1)c1ncc(C(=O)Nc2ccccc2)c(N)n1`, 731 s. The value for `COc1ccc(NC(=O)C2CCCN2S(=O)(=O)c2cc3c(cc2C)NC(=O)CO3)cc1Cl` (stereo not given) was 775 s; that for `CCN1C(=O)COc2ccc(-c3noc(-c4cccc(F)c4)n3)cc21` was 1170 s; that for `CCc1ccccc1NC(=O)Cn1c(C)nc2onc(C)c2c1=O` was 845 s.

Compound `Cc1nn2c(S(=O)(=O)N3CCC(C)CC3)c(C)nc2s1` showed an RP-LC retention time of 838 s.

As for `COc1ccc(-c2noc(N3CCC(C(=O)N4CCN(C5CCCCC5)CC4)CC3)n2)cc1OC`, the RP-LC retention time was found to be 632 s. The value for `CCCCNc1c(C(=O)OC)c(=O)[nH]c2c(Cl)cccc12` was 783 s; that for `Fc1ccc(-c2nc(-c3ccc(-n4cccn4)nc3)no2)cc1F` was 1070 s; that for `CC1CCCN(CC2CCN(C(=O)Nc3ccc(Br)cc3)CC2)C1` (stereo not given) was 661 s. The value for `CCN1C(=O)COc2ccc(-c3nc(NC(=O)c4cccc(Cl)c4)sc3C)cc21` was 1110 s; that for `O=C(Cc1ccccc1)NCc1nc(-c2ccc3oc(-c4ccccc4)nc3c2)no1` was 997 s; that for `CCc1nnc(NC(=O)CSc2nnc(Cn3c(=O)sc4ccccc43)n2C)s1` was 658 s.

In turn, `O=C(NCCc1cccs1)c1cc[nH]c1C1CCCNC1` (stereo not given) gave an RP-LC retention time of 614 s. In the case of `Cc1nc(C(=O)N2CCSCC2)c(C)o1` it was 620 s. The value for `COc1cccc(OCC(O)CN2CCN(c3ccc(F)cc3)CC2)c1` (stereo not given) was 687 s; that for `CCCn1c(=O)c2cc(C(=O)NCc3ccccc3C)nn2c2ccccc21` was 1010 s.

In the case of `Cc1ccc(NC(=O)c2cc3c(s2)CN(C2CCCC2)C3)c(C)c1`, the RP-LC retention time turned out to be 663 s. In the case of `CC1CCCCN1S(=O)(=O)c1ccc2nc(N3CCN(c4ccc(F)cc4)CC3)ccc2c1` (stereo not given) it was 1100 s. In the case of `O=C(NCc1csc(C2CCCN(C(=O)c3cc(F)ccc3Cl)C2)n1)C1CC1` (stereo not given) it was 750 s; in that of `COc1cc(C(=O)N2CCC(C(=O)NCCc3cscn3)CC2)cc(OC)c1OC`, 631 s; in that of `COC(=O)Cn1c(C)cc(=O)n2nc(-c3ccc(Cl)cc3)nc12`, 793 s. The value for `Cc1[nH]c(C(=O)N2CCCC(C(=O)NCCCN3CCOCC3)C2)c(C)c1C(=O)OC(C)C` (stereo not given) was 608 s. In turn, `COc1ccc(-c2nnc(-c3ccc(-n4ccnc4)nc3)o2)cc1` came in with an RP-LC retention time of 654 s. The value for `CC(C)n1cnc(S(=O)(=O)N2CCC(C(=O)Nc3ccc(F)c(Cl)c3)CC2)c1` was 834 s. The value for `Cc1noc([C@@H]2CC(F)(F)CN2C(=O)c2cnco2)n1` was 667 s. The value for `CCc1ccccc1NS(=O)(=O)c1cc(-c2c(CC)noc2NC(C)=O)ccc1OC` was 838 s; that for `CCCNc1cc(N2CCC(CCC(=O)NCCOC)CC2)ncn1` was 590 s. `O=C(Nc1ccc(Cl)cc1)N1CCN(c2nc3ccccc3nc2C(F)(F)F)CC1` had an RP-LC retention time of 1150 s. In the case of `COCCCNC(=O)Cc1cn(C)c2ncccc12` it was 576 s; in that of `c1ccc(Sc2ncnc3ccccc23)cc1`, 1050 s; in that of `CC(C)CN1C(=O)c2cccn2CC1C(=O)NCCCN1CCCC1=O` (stereo not given), 617 s.

In turn, `Cc1ccc(NC(=O)CSc2nc(N3CCCCC3)nc3ccccc23)cc1C` returned an RP-LC retention time of 795 s. The value for `COc1ccc(NC(=O)N2CCN(Cc3cn(C)c4ccccc34)CC2)cc1` was 658 s; that for `O=C(NCC(O)c1cccc2ccccc12)Nc1c(F)cccc1F` (stereo not given) was 745 s; that for `COC(=O)C1=CN(c2ccc(OC)c(Cl)c2)c2cc(F)ccc2S1(=O)=O` was 914 s. In the case of `COc1ccc(C2(C(=O)N3CCC4(CC3)CN(C(C)C)C4c3ccccc3)CC2)cc1` (stereo not given) it was 684 s. The value for `OC(CN1CCN(c2ccccc2)CC1)c1ccc2c(c1)OCO2` (stereo not given) was 630 s; that for `O=C(NCCn1c(=O)n(Cc2ccc(F)cc2)c2cccnc21)c1cnccn1` was 719 s; that for `Cc1ccccc1Nc1c(-c2cccc(Br)c2)nc2cnccn12` was 1040 s. Consider `COc1ccccc1NC(=O)N1CCC(c2nc3ccncc3n2C(C)C)C1` (stereo not given), for which the RP-LC retention time was 551 s.

For the origin of these results see the METLIN SMRT retention time set (Domingo-Almenara et al. 2019).
